Assay: Combination therapy of antibiotic and COX-2 selective inhibitor administered to a mammal to treat or prevent a bacterial infection
Conditions: pharmaceutically effective amount, administered together with a pharmaceutically effective amount of linezolid to a mammal

Q: Which “side effects resulting from the administration of the antibiotic” value does the source give for `CS(=O)(=O)c1ccc(C2=C(c3ccccc3)C(=O)OC2)cc1` [rofecoxib] here?
A: reduced side effects

Reference: patent US20030191051A1, “Combination therapy for the treatment of bacterial infections” (priority 2002, published 2003)
